We go through 25 molecules from a polymer gas permeability compilation.

Regarding `*c1cccc(C(c2cccc(-c3nnc(*)n3-c3ccccc3)c2)(C(F)(F)F)C(F)(F)F)c1` (repeat unit), the CH4 permeability came to 4.66 Barrer, the CO2 permeability is 132 Barrer, the N2 permeability amounted to 5.93 Barrer and the O2 permeability was found to be 26.1 Barrer.

For `*c1cccc(N2C(=O)c3ccc(C(=O)c4ccc5c(c4)C(=O)N(*)C5=O)cc3C2=O)c1` (repeat unit), the CH4 permeability was 0.0086 Barrer, the CO2 permeability came to 0.428 Barrer, the N2 permeability is 0.016 Barrer and the O2 permeability was found to be 0.112 Barrer.

In the case of `*c1ccc(Oc2ccc(N3C(=O)c4ccc(Sc5ccc6c(c5)C(=O)N(*)C6=O)cc4C3=O)cc2)cc1` (repeat unit), the H2 permeability is 4.68 Barrer, the N2 permeability was determined as 0.021 Barrer and the O2 permeability was 0.198 Barrer.

In turn, `*Oc1cc2c(cc1O*)C1(CC2(C)CC)c2cc3c(cc2C(C)(CC)C1C)Oc1c(C#N)c(*)c(*)c(C#N)c1O3` (repeat unit) came in with a CH4 permeability of 580 Barrer, a CO2 permeability of 6100 Barrer, an H2 permeability of 2100 Barrer and an N2 permeability of 320 Barrer. Moreover, the O2 permeability was 820 Barrer.

`*c1cc(C)c(C)c(N2C(=O)c3ccc(Oc4cc(C(C)(C)C)ccc4Oc4ccc5c(c4)C(=O)N(*)C5=O)cc3C2=O)c1C` (repeat unit) came in with a CH4 permeability of 2.5 Barrer, a CO2 permeability of 63 Barrer, an H2 permeability of 85 Barrer and an N2 permeability of 2.2 Barrer. In addition, the O2 permeability came to 11 Barrer.

As to `*Oc1ccc(S(=O)(=O)c2ccc(Oc3c(C)cc(Cc4cc(C)c(*)c(C)c4)cc3C)cc2)cc1` (repeat unit), the CH4 permeability was determined as 0.577 Barrer, the CO2 permeability is 15 Barrer, the H2 permeability was found to be 34.5 Barrer and the N2 permeability is 0.611 Barrer. Besides, the O2 permeability is 3.3 Barrer.

Molecule `*Oc1c(Br)cc(C(C)(C)c2cc(Br)c(OC(=O)c3cc(C(*)=O)cc(C(C)(C)C)c3)c(Br)c2)cc1Br` (repeat unit) showed a CH4 permeability of 0.853 Barrer, a CO2 permeability of 21.5 Barrer, an H2 permeability of 54 Barrer and an N2 permeability of 0.89 Barrer. In addition, the O2 permeability stood at 5.63 Barrer.

Molecule `*Oc1cc2c(cc1O*)C1(c3ccccc3-c3cc4c(cc31)Oc1c(C#N)c(*)c(*)c(C#N)c1O4)c1cc(C)c(C)cc1-2` (repeat unit) showed a CH4 permeability of 563 Barrer, a CO2 permeability of 7880 Barrer, an H2 permeability of 4420 Barrer and an N2 permeability of 341 Barrer. The molecule further showed an O2 permeability of 1390 Barrer.

Consider `*C(=C(*)c1ccc(-c2ccc(C(C)(C)C)cc2)cc1)c1ccccc1` (repeat unit), for which the CH4 permeability amounted to 190 Barrer, the CO2 permeability was 1220 Barrer, the H2 permeability came out at 455 Barrer and the N2 permeability was 70.5 Barrer. This molecule showed an O2 permeability of 195 Barrer.

Regarding `*/C=C/c1ccc(*)cc1[Si](CC)(CC)CC` (repeat unit), the CO2 permeability stood at 24 Barrer, the N2 permeability was found to be 1.8 Barrer and the O2 permeability is 6.6 Barrer.

With `*C(C(=O)OC(C)CC(C)C)C(*)C(=O)OC(C)(C)C` (repeat unit), the H2 permeability came to 169 Barrer, the N2 permeability came to 16 Barrer and the O2 permeability turned out to be 49 Barrer.

As to `*CC(*)c1ccc(C(C)(C)C)cc1` (repeat unit), the CH4 permeability is 16.7 Barrer, the CO2 permeability was 140 Barrer, the N2 permeability was 8.4 Barrer and the O2 permeability turned out to be 35.5 Barrer.

`*Oc1ccc(C(C)(C)c2ccc(OC(=O)c3cccc(C(*)=O)c3)c(C)c2)cc1C` (repeat unit) showed a CH4 permeability of 0.0459 Barrer, a CO2 permeability of 1.24 Barrer, an H2 permeability of 7.79 Barrer and an N2 permeability of 0.0628 Barrer. Besides, the O2 permeability turned out to be 0.4 Barrer.

In turn, `*Oc1c(C)cc(C(c2cc(C)c(Oc3ccc(S(=O)(=O)c4ccc(*)cc4)cc3)c(C)c2)(C(F)(F)F)C(F)(F)F)cc1C` (repeat unit) registered a CH4 permeability of 3 Barrer, a CO2 permeability of 72 Barrer, an N2 permeability of 4 Barrer and an O2 permeability of 18 Barrer.

As for `*Oc1c(C)cc(C(C)(C)c2cccc(C(C)(C)c3cc(C)c(Oc4ccc(S(=O)(=O)c5ccc(*)cc5)cc4)c(C)c3)c2)cc1C` (repeat unit), the CH4 permeability was 0.28 Barrer, the CO2 permeability was found to be 7 Barrer, the H2 permeability amounted to 20 Barrer and the N2 permeability came to 0.281 Barrer. The same molecule came in with an O2 permeability of 1.8 Barrer.

The molecule `*C(=C(*)c1ccc2c(ccc3ccccc32)c1)c1ccc([Si](C)(C)C)cc1` (repeat unit) yielded a CH4 permeability of 500 Barrer, a CO2 permeability of 2100 Barrer, an H2 permeability of 900 Barrer and an N2 permeability of 190 Barrer. Besides, the O2 permeability amounted to 460 Barrer.

Consider `*Oc1ccc(S(=O)(=O)c2ccc(Oc3ccc(Oc4ccc(*)cc4)cc3)cc2)cc1` (repeat unit), for which the CH4 permeability was 0.179 Barrer, the CO2 permeability was determined as 4.3 Barrer, the N2 permeability came to 0.196 Barrer and the O2 permeability amounted to 1.1 Barrer.

In the case of `*C=C(*)C(C)(C)C` (repeat unit), the CH4 permeability amounted to 85 Barrer, the CO2 permeability is 560 Barrer, the N2 permeability was 43 Barrer and the O2 permeability is 130 Barrer.

In the case of `*Oc1ccc(C(C)(C)c2ccc(OC(=O)c3cccc(C(*)=O)c3)cc2)cc1` (repeat unit), the CH4 permeability stood at 0.269 Barrer, the CO2 permeability was determined as 5.6 Barrer, the N2 permeability was found to be 0.272 Barrer and the O2 permeability worked out at 1.45 Barrer.

Regarding `*CC(*)OC(=O)c1ccccc1C` (repeat unit), the CH4 permeability is 0.115 Barrer, the CO2 permeability turned out to be 2.23 Barrer, the N2 permeability stood at 0.0859 Barrer and the O2 permeability came to 0.47 Barrer.

`*CC(*)c1ccc(S(=O)(=O)[O-])cc1` (repeat unit) gave a CH4 permeability of 0.119 Barrer, a CO2 permeability of 4.15 Barrer, an H2 permeability of 10.8 Barrer and an N2 permeability of 0.101 Barrer. The O2 permeability is 0.845 Barrer.

`*/C(C)=C(/*)[Si](C)(C)c1ccccc1` (repeat unit) came in with a CH4 permeability of 1.7 Barrer, a CO2 permeability of 37.6 Barrer, an H2 permeability of 14 Barrer and an N2 permeability of 1.2 Barrer. This molecule had an O2 permeability of 4.4 Barrer.

As for `*OC1OC(COCC)C(*)C(OCC)C1OCC` (repeat unit), the CH4 permeability is 9.2 Barrer, the CO2 permeability stood at 91 Barrer, the H2 permeability is 68 Barrer and the N2 permeability is 4.3 Barrer. This molecule registered an O2 permeability of 15 Barrer.

Molecule `*Oc1ccc(C(=O)c2ccccc2-c2ccccc2C(=O)c2ccc(Oc3ccc(C(c4ccc(*)cc4)(C(F)(F)F)C(F)(F)F)cc3)cc2)cc1` (repeat unit) yielded a CH4 permeability of 0.087 Barrer, a CO2 permeability of 3.12 Barrer, an N2 permeability of 0.146 Barrer and an O2 permeability of 0.99 Barrer.

On to `*c1c(C)c(C)c(-n2c(=O)c3cc4oc5cc6c(cc5oc4cc3c2=O)C2(CC(C)(C)c3cc4oc5cc7c(=O)n(*)c(=O)c7cc5oc4cc32)CC6(C)C)c(C)c1C` (repeat unit), for which the CH4 permeability is 77 Barrer, the CO2 permeability is 1100 Barrer, the H2 permeability came to 530 Barrer and the N2 permeability is 47 Barrer. The O2 permeability worked out at 150 Barrer.
